Measured values taken from ChEMBL document CHEMBL4257529, “Antifungal amphiphilic kanamycins: new life for an old drug” (Medchemcomm, 2018).
Converted amounts (≈) assume the structure as drawn.

Key:
Assay type in all cases: functional
Diutina rugosa = experiment: Antifungal activity against Candida rugosa 95-967
Fusarium graminearum [1] = experiment: Synergistic antifungal activity against Fusarium graminearum B4-5A strain C in presence of fluconazole after 48 hrs by checkerboard method
Fusarium graminearum [2] = experiment: Synergistic antifungal activity against Fusarium graminearum B4-5A strain D in presence of fluconazole after 48 hrs by microdilution assay
Escherichia coli = experiment: Antibacterial activity against Escherichia coli TG1
Fusarium graminearum [3] = experiment: Antifungal activity against Fusarium graminearum B4-5A strain A after 48 hrs by microdilution assay
Fusarium graminearum [4] = experiment: Synergistic antifungal activity against Fusarium graminearum B4-5A strain E assessed as fluconazole MIC after 48 hrs by microdilution assay
Fusarium oxysporum = experiment: Antifungal activity against Fusarium oxysporum
Fusarium graminearum [5] = experiment: Synergistic antifungal activity against Fusarium graminearum B4-5A strain A in presence of fluconazole after 48 hrs by checkerboard method
Fusarium graminearum [6] = experiment: Antifungal activity against Fusarium graminearum infected in wheat plant assessed as fusarium head blight index at 180 mg/L (reference value: 53%)
Fusarium graminearum [7] = experiment: Synergistic antifungal activity against Fusarium graminearum infected in wheat plant assessed as contamination of wheat heads and kernels with deoxynivalenol at 360 mg/L in presence of 2.8 ml/L proline 480 SC (reference value: 1.2 ppm)
Candida albicans [8] = experiment: Antifungal activity against resistant Candida albicans ATCC 64124
Fusarium graminearum [9] = experiment: Antifungal activity against Fusarium graminearum infected in wheat plant assessed as fusarium head blight incidence at 180 mg/L (reference value: 70%)
Fusarium graminearum [10] = experiment: Synergistic antifungal activity against Fusarium graminearum infected in wheat plant assessed as fusarium head blight index at 180 mg/L in presence of 0.512 L/ha caramba (reference value: 53%)
Staphylococcus aureus = experiment: Antibacterial activity against Staphylococcus aureus ATCC 25923
Fusarium graminearum [11] = experiment: Synergistic antifungal activity against Fusarium graminearum B4-5A strain B in presence of fluconazole after 48 hrs by microdilution assay
Fusarium graminearum [12] = experiment: Synergistic antifungal activity against Fusarium graminearum infected in wheat plant assessed as spikelet curling at 360 mg/L in presence of 4 ml/L pyraclostrobin (reference value: 51.4%)
Fusarium graminearum [13] = experiment: Synergistic antifungal activity against Fusarium graminearum infected in wheat plant assessed as fusarium head blight index at 360 mg/L in presence of 0.512 L/ha caramba (reference value: 53%)
Fusarium graminearum [14] = experiment: Synergistic antifungal activity against Fusarium graminearum infected in wheat plant assessed as fusarium head blight severity at 360 mg/L in presence of 0.438 L/ha prosaro 421 SC (reference value: 75%)
Candida parapsilosis [15] = experiment: Antifungal activity against resistant Candida parapsilosis; conditions: Lodderomyces parapsilosis
Cryptococcus neoformans [16] = experiment: Antifungal activity against Cryptococcus neoformans H99; conditions: var grubii H99
Aspergillus niger = experiment: Antifungal activity against Aspergillus niger
Fusarium graminearum [17] = experiment: Antifungal activity against Fusarium graminearum infected in wheat plant assessed as fusarium head blight severity at 180 mg/L (reference value: 75%)
Fusarium graminearum [18] = experiment: Antifungal activity against Fusarium graminearum infected in wheat plant assessed as contamination of wheat heads and kernels with deoxynivalenol at 360 mg/L (reference value: 1.2 ppm)
Kluyveromyces marxianus = experiment: Antifungal activity against Candida pseudotropicalis YOGI
Micrococcus luteus = experiment: Antibacterial activity against Micrococcus luteus ATCC 10240
Fusarium graminearum [19] = experiment: Antifungal activity against Fusarium graminearum B4-5A strain C after 48 hrs by microdilution assay
Fusarium graminearum [20] = experiment: Antifungal activity against Fusarium graminearum infected in wheat plant assessed as fusarium head blight incidence at 360 mg/L (reference value: 70%)
Clavispora lusitaniae = experiment: Antifungal activity against Candida lusitaniae 95-767
Fusarium graminearum [21] = experiment: Synergistic antifungal activity against Fusarium graminearum B4-5A strain A assessed as fluconazole MIC after 48 hrs by microdilution assay
Fusarium graminearum [22] = experiment: Synergistic antifungal activity against Fusarium graminearum infected in wheat plant assessed as fusarium head blight incidence at 180 mg/L in presence of 0.438 L/ha prosaro 421 SC (reference value: 70%)
Fusarium graminearum [23] = experiment: Synergistic antifungal activity against Fusarium graminearum B4-5A strain A in presence of fluconazole after 48 hrs by microdilution assay
Aspergillus flavus = experiment: Antifungal activity against Aspergillus flavus
Fusarium graminearum [24] = experiment: Synergistic antifungal activity against Fusarium graminearum infected in wheat plant assessed as fusarium head blight index at 180 mg/L in presence of 0.438 L/ha prosaro 421 SC (reference value: 53%)
Candida parapsilosis [25] = experiment: Antifungal activity against sensitive Candida parapsilosis; conditions: Lodderomyces parapsilosis
Fusarium graminearum [26] = experiment: Antifungal activity against Fusarium graminearum B-4-5A
Candida albicans [27] = experiment: Antifungal activity against Candida albicans B-311
Fusarium graminearum [28] = experiment: Synergistic antifungal activity against Fusarium graminearum B4-5A strain E in presence of fluconazole after 48 hrs by checkerboard method
Fusarium graminearum [29] = experiment: Antifungal activity against Fusarium graminearum infected in wheat plant assessed as spikelet curling at 360 mg/L (reference value: 51.4%)
Candida albicans [30] = experiment: Antifungal activity against Candida albicans 94-2181
Cryptococcus neoformans [31] = experiment: Antifungal activity against Cryptococcus neoformans 90-26
Fusarium graminearum [32] = experiment: Synergistic antifungal activity against Fusarium graminearum infected in wheat plant assessed as fusarium head blight severity at 180 mg/L in presence of 0.512 L/ha caramba (reference value: 75%)
Fusarium graminearum [33] = experiment: Synergistic antifungal activity against Fusarium graminearum infected in wheat plant assessed as fusarium head blight incidence at 180 mg/L in presence of 0.512 L/ha caramba (reference value: 70%)
Fusarium graminearum [34] = experiment: Synergistic antifungal activity against Fusarium graminearum infected in wheat plant assessed as fusarium head blight incidence at 360 mg/L in presence of 0.438 L/ha prosaro 421 SC (reference value: 70%)
Candida albicans [35] = experiment: Antifungal activity against Candida albicans ATCC 10231
Fusarium graminearum [36] = experiment: Synergistic antifungal activity against Fusarium graminearum B4-5A strain E in presence of fluconazole after 48 hrs by microdilution assay
Candida albicans [37] = experiment: Antifungal activity against sensitive Candida albicans MYA-2876
Fusarium graminearum [38] = experiment: Antifungal activity against Fusarium graminearum infected in wheat plant assessed as fusarium head blight severity at 360 mg/L (reference value: 75%)
Fusarium graminearum [39] = experiment: Synergistic antifungal activity against Fusarium graminearum infected in wheat plant assessed as fusarium head blight severity at 360 mg/L in presence of 0.512 L/ha caramba (reference value: 75%)
Fusarium graminearum [40] = experiment: Synergistic antifungal activity against Fusarium graminearum infected in wheat plant assessed as fusarium head blight severity at 180 mg/L in presence of 0.438 L/ha prosaro 421 SC (reference value: 75%)
Candida tropicalis = experiment: Antifungal activity against Candida tropicalis 95-41
Fusarium graminearum [41] = experiment: Synergistic antifungal activity against Fusarium graminearum infected in wheat plant assessed as contamination of wheat heads and kernels with deoxynivalenol at 360 mg/L in presence of 4 ml/L pyraclostrobin (reference value: 1.2 ppm)

Q: What does the source list for `CCCCCCCCS(=O)(=O)OC[C@H]1O[C@H](O[C@@H]2[C@@H](O)[C@H](O[C@H]3O[C@H](CN)[C@@H](O)[C@H](O)[C@H]3O)[C@@H](N)C[C@H]2N)[C@H](O)[C@@H](N)[C@@H]1O`?
A: MIC (Diutina rugosa): 15.6 µg/mL (≈ 23.6 µM); fractional inhibitory concentration index (FICI) (Fusarium graminearum [1]): 0.37; MIC (Fusarium graminearum [2]): 8 µg/mL; MIC (Escherichia coli): 125 to 250 µg/mL (≈ 189 to 378 µM); MIC (Fusarium graminearum [3]): 16 µg/mL (≈ 24.2 µM); MIC (Fusarium graminearum [4]): 12.5 µg/mL; MIC (Fusarium oxysporum): 31.3 µg/mL (≈ 47.4 µM); fractional inhibitory concentration index (FICI) (Fusarium graminearum [5]): 0.37; Activity_index (Fusarium graminearum [6]): 9%; Activity (Fusarium graminearum [7]): 0.3 ppm; MIC (Candida albicans [8]): 31.3 µg/mL (≈ 47.4 µM); Activity (Fusarium graminearum [9]): 15%; Activity_index (Fusarium graminearum [10]): 7%; MIC (Staphylococcus aureus): 250 µg/mL (≈ 378 µM); MIC (Fusarium graminearum [11]): 4 µg/mL; Activity (Fusarium graminearum [12]): 4.7%; Activity_index (Fusarium graminearum [13]): 8%; Activity (Fusarium graminearum [14]): 54%; MIC (Candida parapsilosis [15]): 15.6 to 31.3 µg/mL (≈ 23.6 to 47.4 µM); MIC (Cryptococcus neoformans [16]): 3.9 to 7.8 µg/mL (≈ 5.9 to 11.8 µM); MIC (Aspergillus niger): > 150 µg/mL; Activity (Fusarium graminearum [17]): 60%; Activity (Fusarium graminearum [18]): 1.4 ppm; MIC (Kluyveromyces marxianus): 15.6 µg/mL (≈ 23.6 µM); MIC (Micrococcus luteus): 62.5 µg/mL (≈ 94.6 µM); MIC (Fusarium graminearum [19]): 16 µg/mL (≈ 24.2 µM); Activity (Fusarium graminearum [20]): 14%; MIC (Clavispora lusitaniae): > 7.8 µg/mL; MIC (Fusarium graminearum [21]): 25 µg/mL; Activity (Fusarium graminearum [22]): 11%; MIC (Fusarium graminearum [23]): 4 µg/mL; MIC (Aspergillus flavus): 300 µg/mL (≈ 454 µM); Activity_index (Fusarium graminearum [24]): 6%; MIC (Candida parapsilosis [25]): 15.6 µg/mL (≈ 23.6 µM); MIC (Fusarium graminearum [26]): 7.8 µg/mL (≈ 11.8 µM); MIC (Candida albicans [27]): > 7.8 µg/mL; fractional inhibitory concentration index (FICI) (Fusarium graminearum [28]): 0.7; Activity (Fusarium graminearum [29]): 34.7%; MIC (Candida albicans [30]): > 7.8 µg/mL; MIC (Cryptococcus neoformans [31]): 3.9 to 7.8 µg/mL (≈ 5.9 to 11.8 µM); Activity (Fusarium graminearum [32]): 50%; Activity (Fusarium graminearum [33]): 15%; Activity (Fusarium graminearum [34]): 10%; MIC (Candida albicans [35]): 15.6 µg/mL (≈ 23.6 µM); MIC (Fusarium graminearum [36]): 4 µg/mL; MIC (Candida albicans [37]): 15.6 µg/mL (≈ 23.6 µM); Activity (Fusarium graminearum [38]): 62%; Activity (Fusarium graminearum [39]): 61%; Activity (Fusarium graminearum [40]): 55%; MIC (Candida tropicalis): 15.6 µg/mL (≈ 23.6 µM); Activity (Fusarium graminearum [41]): 1.6 ppm
